Measurements: ChEMBL document CHEMBL2074177, “Antifolate resistance mediated by the multidrug resistance proteins MRP1 and MRP2” (Cancer Res, 1999)

Biological target: ATP-binding cassette sub-family C member 2 (Homo sapiens, UniProt Q92887)
Experiment: TP_TRANSPORTER: uptake in membrane vesicle from MRP2-expressing 2008 cells
Assay type: functional, cell membranes

Chain of ATP-binding cassette sub-family C member 2 (Q92887 whole entry): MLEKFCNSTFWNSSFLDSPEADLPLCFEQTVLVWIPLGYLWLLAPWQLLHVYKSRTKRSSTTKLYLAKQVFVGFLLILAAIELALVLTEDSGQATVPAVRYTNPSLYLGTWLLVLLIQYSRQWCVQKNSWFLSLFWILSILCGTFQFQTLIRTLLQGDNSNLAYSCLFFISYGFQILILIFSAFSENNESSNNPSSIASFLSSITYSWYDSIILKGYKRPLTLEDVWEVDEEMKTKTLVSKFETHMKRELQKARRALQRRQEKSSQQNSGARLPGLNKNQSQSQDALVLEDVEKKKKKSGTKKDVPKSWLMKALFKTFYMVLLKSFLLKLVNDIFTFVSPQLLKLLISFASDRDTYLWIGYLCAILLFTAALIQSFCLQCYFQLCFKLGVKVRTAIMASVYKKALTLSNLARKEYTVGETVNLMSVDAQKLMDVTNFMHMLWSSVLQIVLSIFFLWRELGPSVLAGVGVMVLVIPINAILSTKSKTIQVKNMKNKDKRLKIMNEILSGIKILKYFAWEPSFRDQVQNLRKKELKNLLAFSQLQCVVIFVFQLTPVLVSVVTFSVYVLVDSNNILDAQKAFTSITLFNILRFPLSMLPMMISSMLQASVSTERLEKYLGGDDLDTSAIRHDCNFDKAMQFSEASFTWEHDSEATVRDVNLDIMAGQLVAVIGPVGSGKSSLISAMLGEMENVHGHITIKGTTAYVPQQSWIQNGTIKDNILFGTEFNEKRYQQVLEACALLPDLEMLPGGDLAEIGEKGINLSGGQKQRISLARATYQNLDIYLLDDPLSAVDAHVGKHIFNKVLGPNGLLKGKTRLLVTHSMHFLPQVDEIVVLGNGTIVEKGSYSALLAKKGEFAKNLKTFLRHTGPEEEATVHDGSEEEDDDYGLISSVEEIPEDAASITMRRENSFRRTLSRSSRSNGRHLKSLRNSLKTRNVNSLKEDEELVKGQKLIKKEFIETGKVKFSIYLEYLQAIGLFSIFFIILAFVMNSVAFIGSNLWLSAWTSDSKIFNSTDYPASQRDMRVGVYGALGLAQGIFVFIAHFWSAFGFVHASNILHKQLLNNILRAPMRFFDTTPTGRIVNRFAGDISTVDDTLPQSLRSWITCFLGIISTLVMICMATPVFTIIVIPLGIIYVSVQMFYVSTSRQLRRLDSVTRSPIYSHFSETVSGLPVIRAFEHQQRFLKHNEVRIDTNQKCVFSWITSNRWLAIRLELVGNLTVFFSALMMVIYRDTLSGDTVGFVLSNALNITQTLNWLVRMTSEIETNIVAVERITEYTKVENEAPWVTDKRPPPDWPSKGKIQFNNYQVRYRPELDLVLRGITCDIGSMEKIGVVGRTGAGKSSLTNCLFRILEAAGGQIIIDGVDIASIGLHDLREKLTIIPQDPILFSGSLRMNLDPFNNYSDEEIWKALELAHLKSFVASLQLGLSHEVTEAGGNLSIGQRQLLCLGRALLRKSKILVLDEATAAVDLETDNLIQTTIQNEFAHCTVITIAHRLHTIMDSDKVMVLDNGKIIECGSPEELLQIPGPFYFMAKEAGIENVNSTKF

Activity: substrate [+]
Compound: CN(Cc1cnc2nc(N)nc(N)c2n1)c1ccc(C(=O)N[C@@H](CCC(=O)O)C(=O)O)cc1 [METHOTREXATE]
